Experimental findings from US20220175781A1, “CD40L COMPOSITIONS AND METHODS FOR TUNABLE REGULATION” (Obsidian Therapeutics, Inc., priority 2019, published 2022) are described below.

Like-named read-outs stand apart in the source and are kept apart here.

Assay [1] deals with Jurkat cells. The following applies: Jurkat cells expressing OT-001662; for Off kinetics (CD40L surface expression, FACS): induced with TMP 50 μM. As for the experimental part: Kinetics were tested using stably transduced Jurkat cells expressing OT-001662. To study the kinetics of turning on the expression of CD40L, cells were treated with TMP (5 or 50 μM) and fixed for FACS after: 0, 3, 6, 9, 24, 48 hours. At the end of the experiment all fixed were stained and analyzed via FACS in parallel. To study the kinetics of turning off expression, expression was first induced in Jurkat cells with 50 μM TMP. The cells were then washed to remove TMP and fixed after 0, 3, 6, 9, 24 hours, stained and analyzed via FACS in parallel.

The test system of the next assay is T cells (CD4 and CD8). Put plainly: Cleavage resistant CD40L expression and TMP regulation in T cells. In kind it is cell-based. As for the experimental part:
T cells were transduced with OT-001668 and on day 4, the percentage of CD40L expressing T cells (within the both CD4 and CD8) subpopulations was calculated.
T cells were transduced with ecDHFR regulated construct OT-001671 that include a CD40L protein that was resistant to cleavage. On day 4 cells were treated with 10 μM TMP for 24 hours. […] In an independent experiment, T cells transduced with varying volumes of virus corresponding to OT-001671 were treated with increasing doses of TMP for 24 hours. In Table 41, 0.5 μL, 2 μL, and 10 μL indicate the different volumes of virus that were used.

The test system of assay [2] is Jurkat cells. Put plainly: Linker length, ER regulated CD40L, % CD40L positive Jurkat cells. It is filed as cell-based. As for the experimental part: Jurkat cells were lentivirally transduced and 24 hours after transduction were treated with DMSO or 1 μM Bazedoxifene for another 24 hours and analyzed by flow cytometry for surface expression of CD40L. […] In Table 33, SR indicates stabilization ratio.

`COc1cc(Cc2cnc(N)nc2N)cc(OC)c1OC` [TMP]: the “On kinetics (CD40L surface expression, FACS)” value in the assay on Jurkat cells [1] (TMP 5 μM, 0 hours) came to 743; in the assay on Jurkat cells [1] (TMP 5 μM, 3 hours), 886; in the assay on Jurkat cells [1] (TMP 5 μM, 6 hours), 1096; in the assay on Jurkat cells [1] (TMP 5 μM, 9 hours), 1392; in the assay on Jurkat cells [1] (TMP 5 μM, 24 hours) it was 2435; in the assay with Jurkat cells [1] (TMP 50 μM, 0 hours), 743. Also, the “On kinetics (CD40L surface expression, FACS)” value with Jurkat cells [1] (TMP 50 μM, 3 hours) is 890; in the assay on Jurkat cells [1] (TMP 50 μM, 6 hours) it was 1180; in the assay with Jurkat cells [1] (TMP 50 μM, 9 hours) it was 1466; in the assay with Jurkat cells [1] (TMP 50 μM, 24 hours) it was 3952. Besides, the “Off kinetics (CD40L surface expression, FACS)” value in the assay with Jurkat cells [1] (0 hours after wash) turned out to be 3952; in the assay with Jurkat cells [1] (3 hours after wash) it was 1631; with Jurkat cells [1] (6 hours after wash), 1620; with Jurkat cells [1] (9 hours after wash), 1037; in the assay on Jurkat cells [1] (24 hours after wash), 1287. For the same molecule, the “TMP dose response (percentage of CD40L positive cells)” value in the assay with T cells (CD4 and CD8) (CD4+, 0.5 μL virus OT-001671, TMP 0.001 μM) was found to be 17.9%; in the assay with T cells (CD4 and CD8) (CD4+, 0.5 μL virus OT-001671, TMP 0.01 μM) it was 18.8%; with T cells (CD4 and CD8) (CD4+, 0.5 μL virus OT-001671, TMP 0.1 μM), 20.4%; in the assay with T cells (CD4 and CD8) (CD4+, 0.5 μL virus OT-001671, TMP 1 μM), 20.3%; with T cells (CD4 and CD8) (CD4+, 0.5 μL virus OT-001671, TMP 10 μM), 27.5%; in the assay on T cells (CD4 and CD8) (CD4+, 2 μL virus OT-001671, TMP 0.001 μM), 11.8%. The “TMP dose response (percentage of CD40L positive cells)” value in the assay on T cells (CD4 and CD8) (CD4+, 2 μL virus OT-001671, TMP 0.01 μM) worked out at 12.2%; with T cells (CD4 and CD8) (CD4+, 2 μL virus OT-001671, TMP 0.1 μM), 14.9%; with T cells (CD4 and CD8) (CD4+, 2 μL virus OT-001671, TMP 1 μM) it was 17.6%; in the assay with T cells (CD4 and CD8) (CD4+, 2 μL virus OT-001671, TMP 10 μM), 30%; with T cells (CD4 and CD8) (CD4+, 10 μL virus OT-001671, TMP 0.001 μM), 4.74%; with T cells (CD4 and CD8) (CD4+, 10 μL virus OT-001671, TMP 0.01 μM), 6.79%. Moreover, the “TMP dose response (percentage of CD40L positive cells)” value in the assay on T cells (CD4 and CD8) (CD4+, 10 μL virus OT-001671, TMP 0.1 μM) was found to be 7.65%; in the assay with T cells (CD4 and CD8) (CD4+, 10 μL virus OT-001671, TMP 1 μM) it was 17.2%; in the assay with T cells (CD4 and CD8) (CD4+, 10 μL virus OT-001671, TMP 10 μM), 43.7%; with T cells (CD4 and CD8) (CD8+, 0.5 μL virus OT-001671, TMP 0.001 μM), 0.59%; with T cells (CD4 and CD8) (CD8+, 0.5 μL virus OT-001671, TMP 0.01 μM) it was 0.56%; in the assay with T cells (CD4 and CD8) (CD8+, 0.5 μL virus OT-001671, TMP 0.1 μM), 0.45%. In addition, the “TMP dose response (percentage of CD40L positive cells)” value was 0.43% in the assay with T cells (CD4 and CD8) (CD8+, 0.5 μL virus OT-001671, TMP 1 μM); 2.44% in the assay on T cells (CD4 and CD8) (CD8+, 0.5 μL virus OT-001671, TMP 10 μM); 0.6% in the assay on T cells (CD4 and CD8) (CD8+, 2 μL virus OT-001671, TMP 0.001 μM); 0.59% with T cells (CD4 and CD8) (CD8+, 2 μL virus OT-001671, TMP 0.01 μM); 0.88% with T cells (CD4 and CD8) (CD8+, 2 μL virus OT-001671, TMP 0.1 μM); 1.29% with T cells (CD4 and CD8) (CD8+, 2 μL virus OT-001671, TMP 1 μM). The “TMP dose response (percentage of CD40L positive cells)” value turned out to be 5.57% in the assay with T cells (CD4 and CD8) (CD8+, 2 μL virus OT-001671, TMP 10 μM); 1.18% in the assay on T cells (CD4 and CD8) (CD8+, 10 μL virus OT-001671, TMP 0.001 μM); 0.89% in the assay on T cells (CD4 and CD8) (CD8+, 10 μL virus OT-001671, TMP 0.01 μM); 0.95% in the assay on T cells (CD4 and CD8) (CD8+, 10 μL virus OT-001671, TMP 0.1 μM); 2.87% with T cells (CD4 and CD8) (CD8+, 10 μL virus OT-001671, TMP 1 μM); 12.4% in the assay on T cells (CD4 and CD8) (CD8+, 10 μL virus OT-001671, TMP 10 μM).

B1: OT-001965: ER regulated CD40L construct with varied linker length (protein)
chain: MSLALSLTADQMVSALLDAEPPILYSEYDPTRPFSEASMMGLLTNLADRELVHMINWAKRVPGFVDLTLHDQVHLLECAWMEILMIGLVWRSMEHPGKLLFAPNLLLDRDQGKCVEGGVEIFDMLLATSSRFRMMNLQGEEFVCLKSIILLNSGVYTFLSSTLKSLEEKDHIHRVLDKITDTLIHLMAKAGLTLQQQHQRLAQLLLILSHIRHMSNKRMEHLYSMKCKNVVPLSDLLLEMLDAHRLGSGMIETYNQTSPRSAATGLPISMKIFMYLLTVFLITQMIGSALFAVYLHRRLDKIEDERNLHEDFVFMKTIQRCNTGERSLSLLNCEEIKSQFEGFVKDIMLNKEETKKENSFEMQKGDQNPQIAAHVISEASSKTTSVLQWAEKGYYTMSNNLVTLENGKQLTVKRQGLYYIYAQVTFCSNREASSQAPFIASLCLKSPGRFERILLRAANTHSSAKPCGQQSIHLGGVFELQPGASVFVNVTDPSQVSHGTGFTSFGLLKL
For the molecule B1, the “Percent of Jurkat cells expressing CD40L” value was determined as 27% in the assay on Jurkat cells [2] (1 μM Bazedoxifene) and 3% with Jurkat cells [2] (DMSO). The SR in the assay with Jurkat cells [2] (1 μM Bazedoxifene versus DMSO, % CD40L positive Jurkat cells) was 9.
